Data published in patent US10392368B2, “Pyrazolo and triazolo bicyclic compounds as JAK kinase inhibitors” (THERAVANCE BIOPHARMA R&D IP, LLC, priority 2017, dated 2019).

Key:
[1] = biological target: T1, Tyk2 (Homo sapiens, UniProt P29597); experiment: Biochemical Tyk2 kinase assay (LanthaScreen); conditions: for Ki: read-out: Tyk 2 (pKi) (converted)
T1 construct: GST; purchased Life Technologies
Method in brief: (§1)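 TR-FRET readout (520/495 nm) using Tb-labelled pTyr701 antibody after EDTA stop, following 1 h ATP-started phosphorylation of GFP-STAT1 by recombinant GST-JAK. Compounds preincubated 1 h with enzyme and substrate; pIC50 from 4-parameter fit, Cheng-Prusoff gives pKi.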

[2] = biological target: T2, JAK1 (Homo sapiens, UniProt P23458); experiment: Biochemical JAK1 kinase assay (LanthaScreen); conditions: for Ki: read-out: JAK 1 (pKi) (converted)
T2 construct: GST; purchased Life Technologies
Method in brief: as §1

[3] = test system: IL-2 stimulated pSTAT5 in Tall-1 T cells; experiment: Cellular JAK3 potency assay: inhibition of IL-2 stimulated pSTAT5 in Tall-1 T cells; assay type: cell-based, human; conditions: for IC50: Homo sapiens, TALL-1, IL-2 stimulated pSTAT5 in Tall-1 T cells, read-out: Tall-1 (pIC50) (converted); for Tall-1 (pIC50): IL-2 stimulated pSTAT5 in Tall-1 T cells
Method in brief: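 Inhibition of IL-2-induced pSTAT5 was quantified by AlphaLisa in Tall-1 cell lysates. Compound exposure lasted 1 h before 30 min stimulation with 300 ng/ml IL-2 final.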

[4] = biological target: T3, JAK3 (Homo sapiens, UniProt P52333); experiment: Biochemical JAK3 kinase assay (LanthaScreen); design: GST; purchased Life Technologies; conditions: for Ki: read-out: JAK 3 (pKi) (converted); for JAK3 (pKi)-JAK1 (pKi): selectivity: difference of pKi JAK3 and pKi JAK1
T3 sequence (P52333 1-1124): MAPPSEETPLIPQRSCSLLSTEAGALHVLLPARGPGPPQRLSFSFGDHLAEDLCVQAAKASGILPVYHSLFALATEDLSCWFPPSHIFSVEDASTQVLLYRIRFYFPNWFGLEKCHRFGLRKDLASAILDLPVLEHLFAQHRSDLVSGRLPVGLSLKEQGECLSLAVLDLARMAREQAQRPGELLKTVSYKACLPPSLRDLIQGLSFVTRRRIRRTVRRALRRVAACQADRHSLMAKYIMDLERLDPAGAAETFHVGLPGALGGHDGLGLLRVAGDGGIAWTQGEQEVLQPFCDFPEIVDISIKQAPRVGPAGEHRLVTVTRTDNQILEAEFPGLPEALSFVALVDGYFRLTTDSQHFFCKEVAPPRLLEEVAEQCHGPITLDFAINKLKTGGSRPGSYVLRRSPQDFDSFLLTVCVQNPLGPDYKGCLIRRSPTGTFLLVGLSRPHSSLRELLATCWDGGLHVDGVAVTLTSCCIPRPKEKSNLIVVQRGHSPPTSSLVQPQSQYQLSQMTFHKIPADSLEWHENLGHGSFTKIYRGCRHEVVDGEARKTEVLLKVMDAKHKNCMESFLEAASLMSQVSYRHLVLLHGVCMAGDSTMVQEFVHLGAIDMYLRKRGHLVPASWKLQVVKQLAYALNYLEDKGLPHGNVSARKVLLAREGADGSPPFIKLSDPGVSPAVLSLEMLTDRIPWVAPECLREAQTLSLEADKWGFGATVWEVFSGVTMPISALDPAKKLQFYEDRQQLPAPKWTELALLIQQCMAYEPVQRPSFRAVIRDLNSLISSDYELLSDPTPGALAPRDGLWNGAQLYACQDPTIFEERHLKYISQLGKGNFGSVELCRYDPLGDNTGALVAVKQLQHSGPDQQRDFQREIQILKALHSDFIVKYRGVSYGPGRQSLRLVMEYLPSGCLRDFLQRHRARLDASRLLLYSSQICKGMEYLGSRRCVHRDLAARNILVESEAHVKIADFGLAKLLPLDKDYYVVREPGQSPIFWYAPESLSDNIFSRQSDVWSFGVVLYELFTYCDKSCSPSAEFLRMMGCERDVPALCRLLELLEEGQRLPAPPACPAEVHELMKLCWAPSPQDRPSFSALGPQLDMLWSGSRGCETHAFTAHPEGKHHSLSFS
Method in brief: as §1

[5] = biological target: T4, JAK2 (Homo sapiens, UniProt O60674); experiment: Biochemical JAK2 kinase assay (LanthaScreen); conditions: for Ki: read-out: JAK 2 (pKi) (converted)
T4 construct: GST; purchased Life Technologies
Method in brief: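 pKi values derive from pIC50 via Cheng-Prusoff, with IC50 from a 4-parameter fit of percent-inhibition TR-FRET data using Tb-anti-pSTAT1 (pTyr701) detection. Compound, GST-JAK2 and GFP-STAT1 substrate were pre-incubated 1 h, then ATP started a 1 h ambient reaction (HEPES pH 7.5, 10 mM MgCl2, 1% DMSO).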

T2 sequence (P23458 whole entry): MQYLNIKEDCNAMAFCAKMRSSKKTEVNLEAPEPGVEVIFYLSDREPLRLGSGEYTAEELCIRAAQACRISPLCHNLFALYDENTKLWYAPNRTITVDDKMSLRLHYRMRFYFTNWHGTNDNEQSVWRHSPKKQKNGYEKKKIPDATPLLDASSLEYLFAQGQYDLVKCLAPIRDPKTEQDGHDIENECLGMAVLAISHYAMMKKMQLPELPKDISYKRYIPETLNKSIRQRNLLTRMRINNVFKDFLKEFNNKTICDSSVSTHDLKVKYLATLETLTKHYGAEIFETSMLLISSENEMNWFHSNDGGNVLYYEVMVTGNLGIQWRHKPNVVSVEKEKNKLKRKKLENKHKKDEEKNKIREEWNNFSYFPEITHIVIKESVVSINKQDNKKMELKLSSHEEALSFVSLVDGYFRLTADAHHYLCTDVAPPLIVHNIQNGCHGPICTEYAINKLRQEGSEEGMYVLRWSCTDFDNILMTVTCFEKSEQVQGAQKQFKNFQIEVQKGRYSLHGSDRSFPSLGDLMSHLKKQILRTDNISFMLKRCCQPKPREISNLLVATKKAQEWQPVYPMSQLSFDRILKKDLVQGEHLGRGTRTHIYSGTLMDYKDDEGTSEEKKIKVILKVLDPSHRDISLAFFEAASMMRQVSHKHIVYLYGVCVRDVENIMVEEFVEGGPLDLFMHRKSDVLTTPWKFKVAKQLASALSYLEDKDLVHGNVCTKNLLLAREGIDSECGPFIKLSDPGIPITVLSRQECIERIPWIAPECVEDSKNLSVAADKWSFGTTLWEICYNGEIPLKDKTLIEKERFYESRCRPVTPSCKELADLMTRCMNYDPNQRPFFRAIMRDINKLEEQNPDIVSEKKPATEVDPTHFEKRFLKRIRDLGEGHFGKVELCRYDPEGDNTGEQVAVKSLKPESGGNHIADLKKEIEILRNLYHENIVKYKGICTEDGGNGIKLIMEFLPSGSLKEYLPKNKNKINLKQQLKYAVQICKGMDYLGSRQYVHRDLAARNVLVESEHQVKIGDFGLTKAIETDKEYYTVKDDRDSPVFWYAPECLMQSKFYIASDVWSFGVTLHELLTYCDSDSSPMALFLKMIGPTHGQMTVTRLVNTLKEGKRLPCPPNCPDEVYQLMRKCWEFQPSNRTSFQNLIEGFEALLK
T1 sequence (P29597 whole entry): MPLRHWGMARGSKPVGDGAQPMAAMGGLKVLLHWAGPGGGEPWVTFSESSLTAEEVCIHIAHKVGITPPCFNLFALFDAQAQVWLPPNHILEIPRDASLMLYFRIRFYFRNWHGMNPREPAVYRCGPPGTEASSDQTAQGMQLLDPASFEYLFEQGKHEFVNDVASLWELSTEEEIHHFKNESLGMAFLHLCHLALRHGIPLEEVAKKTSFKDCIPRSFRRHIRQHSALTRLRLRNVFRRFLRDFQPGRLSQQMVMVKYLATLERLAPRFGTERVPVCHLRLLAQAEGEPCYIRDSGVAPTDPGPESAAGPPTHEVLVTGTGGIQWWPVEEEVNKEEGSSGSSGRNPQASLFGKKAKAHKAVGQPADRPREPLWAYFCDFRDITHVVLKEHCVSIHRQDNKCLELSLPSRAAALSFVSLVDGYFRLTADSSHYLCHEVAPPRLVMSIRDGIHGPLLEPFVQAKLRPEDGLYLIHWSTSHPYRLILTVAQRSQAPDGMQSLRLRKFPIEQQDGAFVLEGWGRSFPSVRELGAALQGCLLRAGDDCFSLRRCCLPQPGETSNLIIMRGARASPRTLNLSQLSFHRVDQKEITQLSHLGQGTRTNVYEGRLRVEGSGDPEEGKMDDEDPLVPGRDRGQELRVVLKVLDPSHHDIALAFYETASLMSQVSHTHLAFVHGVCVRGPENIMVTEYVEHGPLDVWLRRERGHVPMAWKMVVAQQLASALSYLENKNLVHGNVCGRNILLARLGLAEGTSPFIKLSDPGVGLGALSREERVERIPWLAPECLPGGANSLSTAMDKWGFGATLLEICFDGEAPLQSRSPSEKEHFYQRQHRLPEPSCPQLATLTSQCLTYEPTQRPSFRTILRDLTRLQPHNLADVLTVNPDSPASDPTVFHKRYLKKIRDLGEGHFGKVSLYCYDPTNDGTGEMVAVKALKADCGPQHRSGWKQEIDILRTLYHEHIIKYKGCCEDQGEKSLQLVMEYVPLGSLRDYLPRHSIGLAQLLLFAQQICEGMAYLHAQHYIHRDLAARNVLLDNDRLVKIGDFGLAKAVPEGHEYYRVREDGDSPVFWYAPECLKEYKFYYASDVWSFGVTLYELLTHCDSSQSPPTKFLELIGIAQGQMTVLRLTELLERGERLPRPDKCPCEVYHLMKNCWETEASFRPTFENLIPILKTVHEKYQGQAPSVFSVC
T4 sequence (O60674 whole entry): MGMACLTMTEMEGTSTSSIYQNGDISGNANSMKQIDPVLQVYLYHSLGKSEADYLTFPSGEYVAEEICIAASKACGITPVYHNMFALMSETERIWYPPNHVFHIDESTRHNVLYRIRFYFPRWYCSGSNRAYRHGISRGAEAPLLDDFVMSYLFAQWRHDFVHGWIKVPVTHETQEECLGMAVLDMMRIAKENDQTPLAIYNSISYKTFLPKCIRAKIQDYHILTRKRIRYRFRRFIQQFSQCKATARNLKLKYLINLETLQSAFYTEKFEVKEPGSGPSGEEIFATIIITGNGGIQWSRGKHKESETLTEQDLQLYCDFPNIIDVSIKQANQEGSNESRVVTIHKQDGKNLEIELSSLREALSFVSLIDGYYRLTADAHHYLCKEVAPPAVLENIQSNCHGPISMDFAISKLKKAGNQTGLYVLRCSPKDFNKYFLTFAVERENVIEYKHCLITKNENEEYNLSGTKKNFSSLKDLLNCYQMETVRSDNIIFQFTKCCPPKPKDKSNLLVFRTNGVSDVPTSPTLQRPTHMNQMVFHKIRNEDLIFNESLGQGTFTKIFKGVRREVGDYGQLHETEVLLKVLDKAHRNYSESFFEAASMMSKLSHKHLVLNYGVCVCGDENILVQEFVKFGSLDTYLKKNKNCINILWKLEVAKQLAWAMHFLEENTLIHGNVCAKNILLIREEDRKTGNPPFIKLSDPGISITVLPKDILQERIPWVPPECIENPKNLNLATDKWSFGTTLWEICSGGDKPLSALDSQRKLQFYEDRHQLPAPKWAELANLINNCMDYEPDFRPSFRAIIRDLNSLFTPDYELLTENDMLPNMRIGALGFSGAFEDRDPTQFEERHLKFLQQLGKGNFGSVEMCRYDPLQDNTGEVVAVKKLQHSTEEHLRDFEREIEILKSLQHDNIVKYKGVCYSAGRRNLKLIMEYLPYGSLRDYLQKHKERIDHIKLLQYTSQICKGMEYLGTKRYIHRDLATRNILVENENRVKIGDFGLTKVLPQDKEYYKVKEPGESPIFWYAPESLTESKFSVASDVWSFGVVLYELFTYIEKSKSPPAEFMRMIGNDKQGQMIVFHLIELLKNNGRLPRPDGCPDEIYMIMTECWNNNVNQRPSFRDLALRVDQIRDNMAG

SMILES | Ki [1] | Ki [2] | IC50 [3] | Ki [4] | JAK3 (pKi)-JAK1 (pKi) [4] | Ki [5] | Tyk 2 (pKi) [1] | JAK 1 (pKi) [2] | Tall-1 (pIC50) [3] | JAK 3 (pKi) [4] | JAK 2 (pKi) [5]
C=CC(=O)N1CC(CC)(COc2nc(-c3ccc(O)c(F)c3)nc3[nH]ncc23)C1 [Compound 3-67] | > 100 nM | > 100 nM | 31.6 to 200 nM | 0.1 to 1 nM | A (a value of 3 or above) | > 100 nM |  |  |  |  | 
CCC1(COc2cc(-c3ccc(O)c(Cl)c3)nc3[nH]ncc23)CN(C(=O)/C=C/CN(C)C)C1 [Compound 3-68] |  |  |  |  | B (a value of 2.3 to 3) |  | E (a pKi value of 7 or below (Ki of 100 nM or above)) | D (a pKi value between 7 and 8 (Ki between 100 nM and 10 nM)) | C (a pIC50 value between 6 and 6.7 (IC50 between 1 μM and 200 nM)) | B (a pKi value between 9 and 10 (Ki between 1 nM and 0.1 nM)) | E (a pKi value of 7 or below (Ki of 100 nM or above))
C=CC(=O)N1CC(CC)(COc2cc(-c3ccc(O)c(Cl)c3)nc3[nH]ncc23)C1 [Compound 3-69] |  |  |  |  | A (a value of 3 or above) |  | E (a pKi value of 7 or below (Ki of 100 nM or above)) | E (a pKi value of 7 or below (Ki of 100 nM or above)) | B (a pIC50 value between 6.7 (included) and 7.5 (IC50 between 200 nM and 32 nM)) | A (a pKi value≥10 (Ki≤0.1 nM)) | E (a pKi value of 7 or below (Ki of 100 nM or above))
C=CC(=O)N1CC(CC)(COc2cc(-c3ccc(O)c(F)c3)nc3[nH]ncc23)C1 [Compound 3-70] |  |  |  |  | A (a value of 3 or above) |  | E (a pKi value of 7 or below (Ki of 100 nM or above)) | E (a pKi value of 7 or below (Ki of 100 nM or above)) | B (a pIC50 value between 6.7 (included) and 7.5 (IC50 between 200 nM and 32 nM)) | A (a pKi value≥10 (Ki≤0.1 nM)) | E (a pKi value of 7 or below (Ki of 100 nM or above))
CN(C)C/C=C/C(=O)N1CC(C#N)(COc2nc(-c3ccc(O)c(Cl)c3)cc3[nH]ncc23)C1 [Compound 3-71] |  |  |  |  | A (a value of 3 or above) |  | E (a pKi value of 7 or below (Ki of 100 nM or above)) | E (a pKi value of 7 or below (Ki of 100 nM or above)) | A (a pIC50 value≥7.5 (IC50≤32 nM)) | A (a pKi value≥10 (Ki≤0.1 nM)) | E (a pKi value of 7 or below (Ki of 100 nM or above))
C=CC(=O)N1CC(COc2cc(-c3ccc(O)c(Cl)c3)cc3[nH]ncc23)(OC)C1 [Compound 3-73] |  |  |  |  | A (a value of 3 or above) |  | E (a pKi value of 7 or below (Ki of 100 nM or above)) | E (a pKi value of 7 or below (Ki of 100 nM or above)) | A (a pIC50 value≥7.5 (IC50≤32 nM)) | A (a pKi value≥10 (Ki≤0.1 nM)) | E (a pKi value of 7 or below (Ki of 100 nM or above))
C=CC(=O)N1CC(COc2cc(-c3ccc(O)c(F)c3)cc3[nH]ncc23)(OC)C1 [Compound 3-75] |  |  |  |  | A (a value of 3 or above) |  | E (a pKi value of 7 or below (Ki of 100 nM or above)) | E (a pKi value of 7 or below (Ki of 100 nM or above)) | A (a pIC50 value≥7.5 (IC50≤32 nM)) | B (a pKi value between 9 and 10 (Ki between 1 nM and 0.1 nM)) | E (a pKi value of 7 or below (Ki of 100 nM or above))
C=CC(=O)N1CC(C(C)Oc2nc(-c3ccc(O)cc3)nc3[nH]ncc23)C1 (stereo not drawn) [Compound 3-77] | > 100 nM | > 100 nM | 31.6 to 200 nM | < 0.1 nM | A (a value of 3 or above) | > 100 nM |  |  |  |  | 
C=C(CN(C)C)C(=O)N1CC(COc2cc(-c3ccc(O)cc3)nc3[nH]ncc23)C1 [Compound 3-79] | > 100 nM | > 100 nM | 31.6 to 200 nM | 0.1 to 1 nM | A (a value of 3 or above) | > 100 nM |  |  |  |  | 
C=CC(=O)N1CC(COc2cc(-c3ccc(O)c(OC)c3)cc3[nH]ncc23)C1 [Compound 3-83] | > 100 nM | > 100 nM | < 31.6 nM | < 0.1 nM | A (a value of 3 or above) | > 100 nM |  |  |  |  | 
CN1CCC[C@@H]1/C=C/C(=O)N1CC(COc2cc(-c3ccc(O)cc3)cc3[nH]ncc23)C1 [Compound 3-85] | > 100 nM | > 100 nM | < 31.6 nM | < 0.1 nM | A (a value of 3 or above) | 10 to 100 nM |  |  |  |  | 
C=CC(=O)N1CC(COc2cc(-c3ccc(O)c(Cl)c3)nc3[nH]ncc23)C1 [Compound 3-86] | > 100 nM | > 100 nM | 31.6 to 200 nM | < 0.1 nM | A (a value of 3 or above) | > 100 nM |  |  |  |  | 
C=CC(=O)N1CC(COc2cc(-c3ccc(O)c(F)c3)nc3[nH]ncc23)C1 [Compound 3-87] | > 100 nM | > 100 nM | 31.6 to 200 nM | 0.1 to 1 nM | A (a value of 3 or above) | > 100 nM |  |  |  |  | 
CN(C)C/C=C/C(=O)N1CC(F)(COc2nc(-c3ccc(O)cc3)nc3[nH]ncc23)C1 [Compound 3-88] | > 100 nM | > 100 nM | 31.6 to 200 nM | 0.1 to 1 nM | A (a value of 3 or above) | > 100 nM |  |  |  |  | 
CN(C)C/C=C/C(=O)N1CC(F)(COc2cc(-c3ccc(O)cc3)nc3[nH]ncc23)C1 [Compound 3-89] | > 100 nM | > 100 nM | 31.6 to 200 nM | < 0.1 nM | A (a value of 3 or above) | > 100 nM |  |  |  |  | 
CN(C)C/C=C/C(=O)N1CC(F)(COc2nc(-c3ccc(O)c(Cl)c3)cc3[nH]ncc23)C1 [Compound 3-91] | > 100 nM | 10 to 100 nM | < 31.6 nM | < 0.1 nM | A (a value of 3 or above) | 10 to 100 nM |  |  |  |  | 
C=CC(=O)N1CC(F)(COc2nc(-c3ccc(O)c(Cl)c3)nc3[nH]ncc23)C1 [Compound 3-92] | > 100 nM | > 100 nM | < 31.6 nM | < 0.1 nM | A (a value of 3 or above) | > 100 nM |  |  |  |  | 
C=CC(=O)N1CC(F)(COc2nc(-c3ccc(O)c(F)c3)nc3[nH]ncc23)C1 [Compound 3-93] | > 100 nM | > 100 nM | < 31.6 nM | < 0.1 nM | A (a value of 3 or above) | > 100 nM |  |  |  |  | 
C=CC(=O)N1CC(F)(COc2cc(-c3ccc(O)c(Cl)c3)nc3[nH]ncc23)C1 [Compound 3-94] |  |  |  |  | A (a value of 3 or above) |  | E (a pKi value of 7 or below (Ki of 100 nM or above)) | E (a pKi value of 7 or below (Ki of 100 nM or above)) | A (a pIC50 value≥7.5 (IC50≤32 nM)) | A (a pKi value≥10 (Ki≤0.1 nM)) | E (a pKi value of 7 or below (Ki of 100 nM or above))
